According to patent EP0486280A2, “Piperidinylcamphorsulfonyl oxytocin antagonists” (MERCK & CO. INC., priority 1990, dated 1992):

Target: T1, uterine OT receptors (Rattus norvegicus, UniProt P70536)
T1 construct: from tissue; host or cells: uterus of DES-treated rats, crude membranes
T1 sequence (P70536 1-388): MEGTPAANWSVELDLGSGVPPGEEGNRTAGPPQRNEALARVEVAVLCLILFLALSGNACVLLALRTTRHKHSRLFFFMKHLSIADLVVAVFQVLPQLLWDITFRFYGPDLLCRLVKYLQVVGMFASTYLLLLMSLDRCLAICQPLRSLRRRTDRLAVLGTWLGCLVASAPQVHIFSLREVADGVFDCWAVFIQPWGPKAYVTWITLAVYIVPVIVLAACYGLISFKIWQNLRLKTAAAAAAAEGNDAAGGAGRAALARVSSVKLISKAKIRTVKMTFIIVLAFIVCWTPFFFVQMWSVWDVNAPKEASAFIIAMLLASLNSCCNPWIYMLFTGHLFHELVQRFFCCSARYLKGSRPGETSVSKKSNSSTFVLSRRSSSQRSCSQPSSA
Experiment: saturation binding of [^3H]OT, crude membrane preparation of uteri
Set-up: species or system rats
Conditions: radioligand Kd from saturation binding assay; uterus
Protocol: The high affinity binding of [^3H] Oxytocin(OT)([tyrosyl, 3,5-[^3H]OT; 30-60 Ci/mmol; New England Nuclear. Boston, MA) to uterine OT receptors was based on an assay^* using a crude membrane preparation of uteri taken from diethylstilbestrol dipropionate (DES)-treated (0.3 mg/kg, ip; 18-24) rats. Competition studies were conducted at equilibrium (60 minutes; 22°C) using 1 nM[^3H]OT in the following assay buffer: 50 mM Tris-HCI, 5 mM MgCl2, and 0.1% BSA, pH 7.4. Nonspecific binding (10% of the total binding) was determined using 1 mM unlabeled OT and the binding reaction was terminated by filtration through glass fiber filters using a cell harvester (model 7019, Skatron, Inc., Sterling, VA).
1985 J. Clin. Endocrinol. Metab. 60:37.

CC[C@H](C)[C@@H]1NC(=O)[C@H](Cc2ccc(O)cc2)NC(=O)[C@@H](N)CSSC[C@@H](C(=O)N2CCC[C@H]2C(=O)N[C@@H](CC(C)C)C(=O)NCC(N)=O)NC(=O)[C@H](CC(N)=O)NC(=O)[C@H](CCC(N)=O)NC1=O [[^3H]OT]
Kd: 0.7 nM
